Measurements reported in paper PMC2363760, “A novel doxorubicin-glucuronide prodrug DOX-GA3 for tumour-selective chemotherapy: distribution and efficacy in experimental human ovarian cancer” (British Journal of Cancer, 2001).
Like-named read-outs stand apart in the source and are kept apart here.

How the values were obtained:
β-glucuronidase [1] = conditions: ref Tomino and Paigen, 1975; cited from earlier work
OVCAR-3 cells = assay: In vitro antiproliferative effects in OVCAR-3 cells (sulforhodamine B, 72 h); type: cell-based, human; conditions: for IC50: 72 h
OVCAR-3 xenografts = conditions: for GI % (maximum growth inhibition): DOX 8 or DOX-GA3 500 mg kg-1 i.v. weekly x 2; for TD14 (tumour volume doubling time from a relative volume of 1 to 4) / Weight loss / Weight day 14: DOX 8 or DOX-GA3 500 mg kg-1 i.v. days 0,7
[2] = In vivo stability of the prodrug in non-tumour bearing mice; conditions: DOX-GA3 250 mg kg-1, t = 30 min
[3] = Stability of DOX-GA3 in stored control tissue homogenates and serum samples; type: in vitro ADME; conditions: up to 1 mM, up to 4 weeks at -20C (data not shown)
human β-glucuronidase = molecular target: T1, human β-glucuronidase (Homo sapiens, UniProt P08236); conditions: pH 6.8, 37C, enzyme 1 g ml-1, 30 min, direct linear plots
T1 sequence (P08236 23-651): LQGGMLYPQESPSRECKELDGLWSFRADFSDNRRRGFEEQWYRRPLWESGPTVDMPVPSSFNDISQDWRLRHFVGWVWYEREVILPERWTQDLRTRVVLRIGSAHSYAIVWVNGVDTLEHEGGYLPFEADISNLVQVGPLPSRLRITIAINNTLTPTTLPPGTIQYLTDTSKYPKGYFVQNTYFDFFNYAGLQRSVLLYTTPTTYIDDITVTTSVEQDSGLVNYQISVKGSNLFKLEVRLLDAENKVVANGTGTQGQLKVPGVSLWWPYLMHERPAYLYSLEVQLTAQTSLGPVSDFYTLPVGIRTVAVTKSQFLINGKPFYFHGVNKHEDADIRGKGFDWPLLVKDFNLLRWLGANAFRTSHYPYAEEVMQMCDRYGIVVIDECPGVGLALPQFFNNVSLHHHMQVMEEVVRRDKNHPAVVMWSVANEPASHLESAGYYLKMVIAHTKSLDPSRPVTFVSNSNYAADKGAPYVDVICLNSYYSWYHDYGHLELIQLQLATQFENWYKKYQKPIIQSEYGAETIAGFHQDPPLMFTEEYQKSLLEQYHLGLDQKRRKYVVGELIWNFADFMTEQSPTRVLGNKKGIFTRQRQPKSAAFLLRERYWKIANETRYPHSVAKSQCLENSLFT

[4] = Maximum tolerated dose in OVCAR-3-bearing nude mice
β-glucuronidase [5] = assay: Inhibition of β-glucuronidase activity by saccharolactone in samples; type: biochemical; conditions: 1 mM (data not shown)
[6] = DOX-GA3 250 mg kg-1 vs DOX 8 mg kg-1
[7] = after DOX 8 mg kg-1 or DOX-GA3 250 mg kg-1 i.v.

O=C(O)[C@H]1O[C@@H](Oc2ccc([N+](=O)[O-])cc2)[C@H](O)[C@@H](O)[C@@H]1O [4-nitrophenyl-glucuronide]
Km (β-glucuronidase [1]): 1300 µM

COc1cccc2c1C(=O)c1c(O)c3c(c(O)c1C2=O)C[C@@](O)(C(=O)CO)C[C@@H]3O[C@H]1C[C@H](N)[C@H](O)[C@H](C)O1 [DOX, Doxorubicin]
IC50 (OVCAR-3 cells; Homo sapiens): 0.12 µM | heart AUC of DOX, fold higher after DOX than after prodrug (nude, mouse, in vivo): 3.1 fold | kidney AUC of DOX, times lower after DOX than after prodrug (nude, mouse, in vivo): 2.0 times | liver AUC of DOX, fold higher after DOX than after prodrug (nude, mouse, in vivo): 1.8 fold | GI % (maximum growth inhibition) (OVCAR-3 xenografts; larger tumours (mean 400 mm3)): 52% | TD14 (tumour volume doubling time from a relative volume of 1 to 4) (OVCAR-3 xenografts; larger tumours): 21.5 days | GI % (maximum growth inhibition) (OVCAR-3 xenografts; small tumours (mean 125 mm3)): 56% | TD14 (tumour volume doubling time from a relative volume of 1 to 4) (OVCAR-3 xenografts; small tumours): 11.5 days

COc1cccc2c1C(=O)c1c(O)c3c(c(O)c1C2=O)C[C@@](O)(C(=O)CO)C[C@@H]3O[C@H]1C[C@H](NC(=O)OCc2ccc(NC(=O)O[C@@H]3O[C@H](C(=O)O)[C@@H](O)[C@H](O)[C@H]3O)cc2)[C@H](O)[C@H](C)O1 [DOX-GA3, N -[4-doxorubicin-N -carbonyl (oxymethyl)phenyl] O -β-glucuronyl carbamate]
times less capable of inhibiting cell growth than DOX (OVCAR-3 cells): more than 100 times | IC50 (OVCAR-3 cells): 22 µM | drug/prodrug ratio in plasma [2]: 0.001 | activation to doxorubicin on storage [3]: less than 0.1% | Km (human β-glucuronidase): 1100 µM | Vmax (human β-glucuronidase): 25.0 μmol min^–1mg^–1 | tumour AUC of DOX, fold higher after DOX-GA3 than after DOX (DOX at MTD, prodrug at half of MTD): 10 fold | times lower peak plasma concentration of DOX than after DOX (DOX-GA3 250 mg kg-1 i.v. vs DOX 8 mg kg-1 i.v.): 7.6 times | prodrug peak concentration in plasma (DOX-GA3 250 mg kg-1 i.v., t = 1 min): 1370 nmol/mL | peak of DOX-GA3 in OVCAR-3 tumour tissue (DOX-GA3 250 mg kg-1 i.v., t = 30 min): 44.0 nmol/g | fold higher DOX peak concentration in tumour than after DOX [6]: ~5 fold | fold lower peak DOX concentration in normal tissues (heart) than after DOX [6]: up to 5 fold | DOX peak concentration in OVCAR-3 tumour tissue (after DOX 8 mg kg-1 (t = 1 min) or DOX-GA3 250 mg kg-1 (t = 2 h) i.v.): 9.57 nmol/g | DOX peak concentration in heart [7]: 3.27 nmol/g | DOX peak concentration in kidney [7]: 70.8 nmol/g | DOX peak concentration in liver [7]: 14.2 nmol/g | DOX peak concentration in plasma [7]: 2.17 nmol/mL | drug targeting index (DTI), heart tissue (tumour vs heart): 31.4 | drug targeting index (DTI), plasma (tumour vs plasma (surrogate for bone marrow)): 81.4 | ratio of drug/prodrug in plasma (tumour-bearing animals, DOX-GA3 250 mg kg-1): 0.002 | specific growth delay (SGD) (OVCAR-3 xenografts; larger tumours (mean 400 mm3), 500 mg kg-1 i.v. weekly x 2): 3.9 | Weight loss (OVCAR-3 xenografts; larger tumours (mean 400 mm3)): 9.6% | GI % (maximum growth inhibition) (OVCAR-3 xenografts; larger tumours (mean 400 mm3)): 88% | TD14 (tumour volume doubling time from a relative volume of 1 to 4) (OVCAR-3 xenografts; larger tumours): 75.1 days | Weight day 14 (OVCAR-3 xenografts; larger tumours): 91.9% | Weight loss (OVCAR-3 xenografts; small tumours (mean 125 mm3)): 5.1% | GI % (maximum growth inhibition) (OVCAR-3 xenografts; small tumours (mean 125 mm3)): 87% | TD14 (tumour volume doubling time from a relative volume of 1 to 4) (OVCAR-3 xenografts; small tumours): 32.4 days | Weight day 14 (OVCAR-3 xenografts; small tumours): 99.0% | maximum weight loss at MTD ([4]; 500 mg kg-1 i.v. weekly x 2): approximately 10% | toxic deaths at MTD ([4]; 500 mg kg-1 i.v. weekly x 2): No toxic deaths occurred | molar amount that could be administered at an equitoxic dose, compared with parent drug ([4]; DOX-GA3 500 mg kg-1 x 2 vs DOX 8 mg kg-1 x 2): 38 fold | MTD ([4]; i.v. weekly x 2, OVCAR-3-bearing mice): 500 mg/kg

O.O=C(O)[C@@H](O)[C@H]1OC(=O)[C@H](O)[C@H]1O [Saccharolactone, D-glucaric acid-1,4-lactone monohydrate]
activity of the enzyme abolished (β-glucuronidase [5]): > 99%
